Values quoted from earlier work, collected in US20210137108A1, “REDUCED INHALATION HAZARD OF QUATERNARY AMMONIUM COMPOUNDS-PH DRIVEN PHYSIOLOGICAL RESPONSE” (priority 2016, published 2021).
Read-outs that look alike come from different tables or passages of the source.

Legend:
rats = test system: rats; design: key: L is lethal dose; S indicates survival
[1] = rats
[2] = test system: lung biomarkers, Clara cells, blood-air barrier; details: inhalation exposure at 35 mg per cubic meter

| Compound | pKa | lethal dose / survival (rats; i.a., dose 15-20 mg/kg) | lethal dose / survival (rats; i.a., dose 100-150 mg/kg) | lethal dose / survival (rats; i.v., dose 15-20 mg/kg) | lethal dose / survival (rats; i.v., dose 100-150 mg/kg) | lethal dose / survival (rats; p.o., dose 250 mg/kg) | lethal dose / survival (rats; p.o., dose 1250 mg/kg) | concentrations in the lungs and kidneys compared to levels observed in the liver and tissue [1] | Clara cells and CC16 protein concentration [2] | changes in lung biomarker levels [2] | inflammatory response and blood-air barrier [2] | influx of proteins from blood vessels and alveolar space [2] |
| --- | --- | --- | --- | --- | --- | --- | --- | --- | --- | --- | --- | --- |
| NS(=O)(=O)O [Sulfamic Acid] | 1 | – | – | – | – | – | – | – | – | – | – | – |
| Soidum dodecylbenzensulfonate | – | S | L | S | L | S | L | – | – | – | – | – |
| Benzalkonium Chloride | – | L | – | L | – | S | L | several times higher | Damage to Clara cells and a reduced concentration in CC16 protein | significant changes | strong inflammatory response and damage to the blood-air barrier | massive influx of proteins |
| N=C(NCCCCCCNC(=N)NC(=N)Nc1ccc(Cl)cc1)NC(=N)Nc1ccc(Cl)cc1.O=C(O)[C@H](O)[C@@H](O)[C@H](O)[C@H](O)CO.O=C(O)[C@H](O)[C@@H](O)[C@H](O)[C@H](O)CO [Chlorhexidine gluconate] | – | L | – | L | – | S | S and (poor) | – | – | – | – | – |
| Alkyldiaminoethylglycine | – | S | L | S | L | S | L | – | – | – | – | – |
